{
  "source": "patent US20090227503A1",
  "about": "“PARATHYROID HORMONE TREATMENT FOR ENHANCED ALLOGRAFT AND TISSUE-ENGINEERED RECONSTRUCTION OF BONE DEFECTS” (UNIVERSITY OF ROCHESTER, priority 2008, published 2009)",
  "key": {"[1]": {"test_system": "intact contralateral femurs", "assay": "Micro-CT of intact contralateral femurs (Example 4)", "format": "in vivo, mice", "conditions": "6 weeks"}, "[2]": {"test_system": "non-union tibial fracture", "assay": "Union Area from clinical CT of a patient with non-union tibial fracture", "format": "in vivo, human", "conditions": "one patient, after 4 months of teriparatide treatment", "excerpt": "We used our custom MATLAB software to contour the segment of bone on one side of the fracture site similarly to contouring around the murine graft. The surface area forming union to the other side of the fracture was then estimated by the software. […] FIG. 12 illustrates clinical x-rays of an anonymous patient's fractured tibia before and after 4 months of teriparatide therapy, 160 and 165, respectively and CT scan data of the patient before and after 4 months of teriparatide therapy, 170 and 175, respectively; and Union Area, shown in grey in 170 and 175, of the patient before and after 4 months of teriparatide therapy, 180 and 185, respectively. The effects of teriparatide on fracture healing were quantified as a 2.8 fold increase in Union Area."}, "grafted femurs": {"test_system": "grafted femurs", "assay": "Torsion testing of grafted femurs (Example 4)", "format": "in vivo, mice", "protocol": "Four-mm long bone allografts were harvested from donor mice, and were processed and implanted into intecalary defects 195 in the femur of other mice and secured in place using a stainless steel intramedullary pin 190, as shown in FIG. 13. One week after surgery, daily injections of 40 μg/kg hrPTH (1-34) (Lilly, Inc., Indianapolis, Ind.) were initiated in half of the mice, while the others received injections of saline control. Weekly x-rays were taken to monitor progression (Faxitron X-Ray LLC, Wheeling, Ill.).\nOne cohort of the study groups used 14 mice from each treatment (PTH and control) for imaging and mechanical material testing and were sacrificed 6 weeks after surgery. Each femur was harvested by disarticulating the hip and knee and removing the intramedullary stainless-steel pin. Specimens were moistened with saline and frozen at −20° C. until thawed for micro-CT imaging and torsion testing. Specimens were scanned at […] isotropic resolution using the Scanco VivaCT 40 (Scanco Medical AG, Bassersdorf, Switzerland). From these 3D images, the graft and callus bone volumes (BVGraft, BVCallus) were measured by manual segmentation, followed by standardized thresholding at a grayscale corresponding to 750 mgHA/cm^3. The cross-sectional polar moment of inertias (PMI) were computed for each slice throughout the grafted region and the maximum, minimum and average PMI (PMIMax, PMIMin, PMIAve) were investigated to determine their contribution to the biomechanics of the grafted femurs.\nThe Union Ratio was also calculated. The Union Ratio measures the graft surface area upon which mineralized callus has formed. If the voxels adjacent to the graft surface are boney callus, the area of that region of the graft is measured and normalized to the total graft surface area. Imaging data (not shown) indicated the bare surface of the graft in blue, with regions of union to the callus depicted as red. Each half (proximal and distal) of the graft was evaluated separately and the lesser ratio of union area to total graft surface area was given as the Union Ratio for that specimen. Callus formation that bridged from host-to-host over the graft was determined by evaluating serial axial cross sections from micro-CT images and given a binary result. These samples were then mechanically tested in torsion. Yield torque (TYield), ultimate torque (TUlt), torsional rigidity (TR), toughness (or work to failure) and the twist at ultimate torque were determined for each specimen. Finally, the mode of failure for each specimen was determined using an x-ray image analysis (not shown)."}, "[3]": {"conditions": "PTH contralateral femur, mean, N = 8"}, "[4]": {"conditions": "PTH Graft, 6 weeks after implantation, mean"}},
  "data": [
    {"smiles": "CC[C@H](C)[C@H](NC(=O)[C@H](CCC(=O)O)NC(=O)[C@H](CO)NC(=O)[C@@H](NC(=O)[C@@H](N)CO)C(C)C)C(=O)N[C@@H](CCC(N)=O)C(=O)N[C@@H](CC(C)C)C(=O)N[C@@H](CCSC)C(=O)N[C@@H](Cc1cnc[nH]1)C(=O)N[C@@H](CC(N)=O)C(=O)N[C@@H](CC(C)C)C(=O)NCC(=O)N[C@@H](CCCCN)C(=O)N[C@@H](Cc1cnc[nH]1)C(=O)N[C@@H](CC(C)C)C(=O)N[C@@H](CC(N)=O)C(=O)N[C@@H](CO)C(=O)N[C@@H](CCSC)C(=O)N[C@@H](CCC(=O)O)C(=O)N[C@@H](CCCN=C(N)N)C(=O)N[C@H](C(=O)N[C@@H](CCC(=O)O)C(=O)N[C@@H](Cc1c[nH]c2ccccc12)C(=O)N[C@@H](CC(C)C)C(=O)N[C@@H](CCCN=C(N)N)C(=O)N[C@@H](CCCCN)C(=O)N[C@@H](CCCCN)C(=O)N[C@@H](CC(C)C)C(=O)N[C@@H](CCC(N)=O)C(=O)N[C@@H](CC(=O)O)C(=O)N[C@H](C(=O)N[C@@H](Cc1cnc[nH]1)C(=O)N[C@@H](CC(N)=O)C(=O)N[C@@H](Cc1ccccc1)C(=O)O)C(C)C)C(C)C", "note": "[PTH, PTH (1-34)]", "values": [
      {"measurement": "contralateral intact femur's diaphyseal BMCPTH:BMCSaline", "setting": "[1]", "result": 1.17},
      {"measurement": "A-P Periosteal Diameter", "setting": "[1]; [3]", "result": 1.30, "unit": "mm"},
      {"measurement": "Cortical Bone Density", "setting": "[1]; [3]", "result": 1179, "unit": "mgHA/cc"},
      {"measurement": "Cortical Thickness", "setting": "[1]; [3]", "result": 0.199, "unit": "mm"},
      {"measurement": "Cross-Sectional Area", "setting": "[1]; [3]", "result": 0.82, "unit": "mm²"},
      {"measurement": "M-L Periosteal Diameter", "setting": "[1]; [3]", "result": 1.85, "unit": "mm"},
      {"measurement": "Polar Moment of Inertia", "setting": "[1]; [3]", "result": 0.36, "unit": "mm^4"},
      {"measurement": "increase in mineralized Union Area", "setting": "[2]", "result": 2.8, "unit": "fold"},
      {"measurement": "Grafted femur mode of failure after torsion testing: Early Union (number of femurs)", "setting": "grafted femurs; 6 weeks", "result": 3},
      {"measurement": "Grafted femur mode of failure after torsion testing: Mature Union (number of femurs)", "setting": "grafted femurs; 6 weeks", "result": 3},
      {"measurement": "Grafted femur mode of failure after torsion testing: Pre-Union (number of femurs)", "setting": "grafted femurs; 6 weeks", "result": 8},
      {"measurement": "rate of twist at TUlt as fraction of control grafted specimens", "setting": "grafted femurs; 6 weeks", "result": "⅓"},
      {"measurement": "TR", "setting": "grafted femurs; [4]", "result": 1175, "unit": "N*mm^2/Rad"},
      {"measurement": "Tult", "setting": "grafted femurs; [4]", "result": 13.2, "unit": "N*mm"},
      {"measurement": "Twist at Tult", "setting": "grafted femurs; [4]", "result": 0.020, "unit": "Rad/mm"},
      {"measurement": "Tyield", "setting": "grafted femurs; [4]", "result": 10.5, "unit": "N*mm"},
      {"measurement": "Work to TUlt", "setting": "grafted femurs; [4]", "result": 0.167, "unit": "Nmm*Rad/mm"},
      {"measurement": "Work to TYield", "setting": "grafted femurs; [4]", "result": 0.0687, "unit": "Nmm*Rad/mm"},
      {"measurement": "specimens that failed in a manner not simply graft-pullout from the host", "setting": "grafted femurs; saline only 3, not statistically significant", "result": "Six"},
      {"measurement": "Yield Torque, greater by", "setting": "grafted femurs; vs saline grafted femurs, 6 weeks", "result": 72, "unit": "%"},
      {"measurement": "Ultimate Torque, greater by", "setting": "grafted femurs; vs saline grafted femurs, 6 weeks, not significant", "result": 23, "unit": "%"},
      {"measurement": "torsional rigidity of grafted femurs", "setting": "grafted femurs; vs saline, 6 weeks", "result": "doubled"}
    ]}
  ]
}
